Here are results for 4 compounds from ChEMBL document CHEMBL1158327, “Four new clerodane diterpenes from the leaves of Casearia guianensis which inhibit the interaction of leukocyte function antigen 1 with intercellular adhesion molecule 1” (J Nat Prod, 1997).

The source made the active and inactive calls. The rule behind the calls is not given here.

Test [1] concerns the target Intercellular adhesion molecule (ICAM-1), Integrin alpha-L/beta-2 (Homo sapiens, UniProt P05107+P05362+P20701). Nature of the test: (§1) Inhibition of LFA1 binding to full length soluble ICAM1 by gamma scintillation counter. Format: protein-complex assay.
For test [2], the target named is Intercellular adhesion molecule (ICAM-1), Integrin alpha-L/beta-2 (Homo sapiens) (UniProt P20701+P05362+P05107). The test is described as §1. The class given is protein-complex assay.

Sequence of Intercellular adhesion molecule (ICAM-1), Integrin alpha-L/beta-2 (P20701 whole entry): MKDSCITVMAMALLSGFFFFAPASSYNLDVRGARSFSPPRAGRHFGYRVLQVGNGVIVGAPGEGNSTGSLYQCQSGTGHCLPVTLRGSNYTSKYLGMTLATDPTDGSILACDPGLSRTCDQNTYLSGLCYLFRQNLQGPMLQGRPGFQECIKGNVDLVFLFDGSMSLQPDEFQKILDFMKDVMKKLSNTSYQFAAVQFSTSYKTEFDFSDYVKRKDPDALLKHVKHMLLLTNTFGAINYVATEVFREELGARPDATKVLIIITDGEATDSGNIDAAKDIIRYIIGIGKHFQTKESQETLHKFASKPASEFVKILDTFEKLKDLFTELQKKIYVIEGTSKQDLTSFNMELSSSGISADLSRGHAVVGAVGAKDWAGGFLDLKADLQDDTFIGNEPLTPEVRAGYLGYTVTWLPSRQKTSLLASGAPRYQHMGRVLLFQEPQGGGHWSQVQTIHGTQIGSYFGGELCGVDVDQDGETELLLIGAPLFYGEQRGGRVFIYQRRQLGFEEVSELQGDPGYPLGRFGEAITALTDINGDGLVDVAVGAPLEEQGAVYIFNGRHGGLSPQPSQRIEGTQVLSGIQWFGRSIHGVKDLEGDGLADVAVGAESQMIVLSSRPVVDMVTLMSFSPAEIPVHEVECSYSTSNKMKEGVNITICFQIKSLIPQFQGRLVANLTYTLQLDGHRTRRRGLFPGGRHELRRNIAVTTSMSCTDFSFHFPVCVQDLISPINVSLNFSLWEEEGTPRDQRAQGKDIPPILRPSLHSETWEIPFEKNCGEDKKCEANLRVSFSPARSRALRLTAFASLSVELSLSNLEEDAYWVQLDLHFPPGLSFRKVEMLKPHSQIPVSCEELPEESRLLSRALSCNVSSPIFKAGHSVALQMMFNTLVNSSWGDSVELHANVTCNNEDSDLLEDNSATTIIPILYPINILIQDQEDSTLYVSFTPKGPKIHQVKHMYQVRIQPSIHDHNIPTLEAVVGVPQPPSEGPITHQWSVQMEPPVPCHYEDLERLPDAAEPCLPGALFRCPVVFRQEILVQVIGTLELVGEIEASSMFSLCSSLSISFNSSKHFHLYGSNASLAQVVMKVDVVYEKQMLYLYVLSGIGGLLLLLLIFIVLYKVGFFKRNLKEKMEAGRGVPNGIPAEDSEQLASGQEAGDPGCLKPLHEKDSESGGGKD
Sequence of Intercellular adhesion molecule (ICAM-1), Integrin alpha-L/beta-2 (P05362 whole entry): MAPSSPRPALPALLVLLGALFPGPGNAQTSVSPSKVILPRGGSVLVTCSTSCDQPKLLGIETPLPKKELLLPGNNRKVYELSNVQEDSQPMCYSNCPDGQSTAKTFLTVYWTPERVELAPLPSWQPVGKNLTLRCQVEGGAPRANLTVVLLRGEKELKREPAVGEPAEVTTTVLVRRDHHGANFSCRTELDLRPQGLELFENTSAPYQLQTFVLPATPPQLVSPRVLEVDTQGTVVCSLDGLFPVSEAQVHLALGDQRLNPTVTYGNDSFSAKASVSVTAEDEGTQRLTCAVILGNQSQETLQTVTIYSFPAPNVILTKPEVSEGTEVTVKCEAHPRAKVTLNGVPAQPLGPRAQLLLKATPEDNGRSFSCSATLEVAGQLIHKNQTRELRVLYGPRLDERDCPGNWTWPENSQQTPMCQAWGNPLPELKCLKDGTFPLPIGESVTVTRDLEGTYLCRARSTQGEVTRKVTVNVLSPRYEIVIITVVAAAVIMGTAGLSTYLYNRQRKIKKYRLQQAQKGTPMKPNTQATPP
Sequence of Intercellular adhesion molecule (ICAM-1), Integrin alpha-L/beta-2 (P05107 whole entry): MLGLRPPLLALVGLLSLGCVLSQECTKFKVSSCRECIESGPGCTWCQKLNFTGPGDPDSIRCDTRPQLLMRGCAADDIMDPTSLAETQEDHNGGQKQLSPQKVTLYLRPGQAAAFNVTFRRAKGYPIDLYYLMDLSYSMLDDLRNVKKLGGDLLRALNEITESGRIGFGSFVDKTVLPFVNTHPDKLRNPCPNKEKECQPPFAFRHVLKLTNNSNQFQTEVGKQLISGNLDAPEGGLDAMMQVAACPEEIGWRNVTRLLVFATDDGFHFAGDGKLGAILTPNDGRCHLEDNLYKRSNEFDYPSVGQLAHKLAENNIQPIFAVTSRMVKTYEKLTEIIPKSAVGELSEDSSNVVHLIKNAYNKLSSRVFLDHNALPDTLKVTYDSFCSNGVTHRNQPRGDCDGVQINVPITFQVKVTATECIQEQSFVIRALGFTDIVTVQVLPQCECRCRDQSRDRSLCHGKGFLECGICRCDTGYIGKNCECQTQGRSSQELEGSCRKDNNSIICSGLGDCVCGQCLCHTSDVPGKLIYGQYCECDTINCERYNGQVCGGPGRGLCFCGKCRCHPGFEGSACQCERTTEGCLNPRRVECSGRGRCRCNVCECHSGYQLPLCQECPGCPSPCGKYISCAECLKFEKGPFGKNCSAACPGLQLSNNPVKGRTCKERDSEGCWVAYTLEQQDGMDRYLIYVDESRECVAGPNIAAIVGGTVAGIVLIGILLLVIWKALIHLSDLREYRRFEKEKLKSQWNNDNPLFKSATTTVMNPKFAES

The term IC50 denotes the concentration that inhibits the measured activity by half. Turning to `C=C/C(C)=C/C[C@]1(C)[C@H]2C[C@@H](OC(=O)/C(C)=C/C)C[C@@H]3[C@H](OC(C)=O)OC(OC(C)=O)[C@@]32[C@H](O)C[C@@H]1C` (some centres undefined) [CASEARINOL A], in test [1], the half-maximal inhibitory concentration (IC50) was 50 µM.
With `C=C/C(C)=C/C[C@]1(C)[C@H]2C[C@@H](OC(=O)C(C)CC)C[C@@H]3[C@H](OC(C)=O)OC(OC(C)=O)[C@@]32[C@H](O)C[C@@H]1C` (some centres undefined), in test [2], the result was Active.
With `C=C/C(C)=C\C[C@]1(C)[C@H]2C[C@@H](OC(C)=O)C[C@@H]3[C@H](OC(C)=O)O[C@H](OC(C)=O)[C@@]32C(=O)C[C@@H]1C`, the result in test [2] was Active.
On the same count and under the same terms, the same measure for `C=C/C(C)=C/C[C@]1(C)[C@H]2C[C@@H](OC(C)=O)C[C@@H]3[C@H](OC(C)=O)O[C@H](OC(C)=O)[C@@]32C(=O)C[C@@H]1C`: “Active”.
